Assay in all cases: NCI anticancer screen, dose series, 48 h
Assay [1] relates to NCI-H460.
Assay [2] deals with HOP-92.
Assay [3] deals with RPMI-8226.
Assay [4] concerns SNB-75.
Assay [5] has as its system PC-3.
Assay [6] deals with IGROV-1.
Assay [7] has as its system DU-145.
In assay [8] the test system is NCI-H23.
In assay [9] the test system is SF-539.
The test system of assay [10] is NCI-H522.
Assay [11] has as its system OVCAR-8.
The subject of assay [12] is HCT-15.
Assay [13] relates to EKVX.
The test system of assay [14] is HT-29.
Assay [15] deals with ACHN.
The subject of assay [16] is A549.
Assay [17] concerns OVCAR-3.
Assay [18] deals with MDA-MB-435.
Assay [19] concerns SK-MEL-5.
The subject of assay [20] is M14.

SMILES strings stand for the structures.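 Test compounds were applied to cells in 96-well plates for 48 hours at 5 doses. Here, GI50 denotes the concentration required for 50% inhibition of growth.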 Calls of active or inactive are those of the source. No stated cut-off is given here; in the data, active = GI50 up to about 1.1 µM and inactive = higher.

Take `O=C1C(Cl)=C(Nc2ccc(S(=O)(=O)Nc3ccccn3)cc2)C(=O)c2ccccc21`: the GI50 was 4.53 µM (inactive) in [1]; 5.7 µM (inactive) in assay [2]; 3.52 µM (inactive) in [3]; 7.91 µM (inactive) in assay [4]; 12.8 µM (inactive) in [5]; 5.93 µM (inactive) in assay [6]. In addition, the GI50 in [7] is 7.91 µM (inactive); in assay [8], 10.8 µM (inactive); in assay [9] it was 4.54 µM (inactive); in assay [10] it was 5.02 µM (inactive); in assay [11], 4.09 µM (inactive); in assay [12], 4.36 µM. For the same compound, the GI50 was 9.4 µM (inactive) in assay [13]; 7.5 µM (inactive) in [14]; 10.6 µM (inactive) in assay [15]; 18.7 µM (inactive) in [16]; 4.65 µM (inactive) in assay [17]; 6.55 µM (inactive) in assay [18]. Also, the GI50 in [19] was 4.4 µM (inactive); in assay [20], 5.93 µM (inactive).

For `O=C(O)/C=N/NC(=S)NC1CCCCC1`, the GI50 in [1], in assay [2], in assay [3], in [4], in assay [5] and in [6] was > 100 µM (inactive) throughout. The GI50 in assay [7] is > 100 µM (inactive); in [8] it was > 100 µM (inactive); in assay [9], > 100 µM (inactive); in [10] it was > 100 µM (inactive); in [11] it was > 100 µM (inactive); in assay [12], above 100 µM. The GI50 in assay [13], in [14], in assay [15], in assay [16], in assay [17] and in [18] was > 100 µM (inactive) in each case. Also, the GI50 in assay [19] and in [20] was > 100 µM (inactive) each time.

Regarding `NC1C/C(=N\O)c2c(I)sc(I)c21` (stereo not given), the GI50 in assay [1] was 21.3 µM (inactive); in assay [2], 17.1 µM (inactive); in assay [3], 6.7 µM (inactive); in assay [4], 18.9 µM (inactive); in assay [5], 17.1 µM (inactive); in assay [6], 15.7 µM (inactive). In addition, the GI50 was 17.4 µM (inactive) in assay [7]; 14.7 µM (inactive) in [8]; 6.08 µM (inactive) in assay [9]; 1.61 µM (inactive) in assay [10]; 13.4 µM (inactive) in assay [11]; 13.4 µM in assay [12]. Besides, the GI50 in [13] was 19 µM (inactive); in [14] it was 19.2 µM (inactive); in [15], 18.7 µM (inactive); in assay [16], 16 µM (inactive); in [17], 15.8 µM (inactive); in assay [18] it was 13.8 µM (inactive). For the same compound, the results for the GI50 in assay [19] and in assay [20] were 14.8 µM (inactive) and 14.5 µM (inactive), respectively.

In the case of `Cn1c(=S)[nH]c2sc3c(c2c1=O)CCSC3`, the GI50 in assay [1] was 35.8 µM (inactive); in [2], 23.9 µM (inactive); in assay [3] it was 32.4 µM (inactive); in assay [4], > 100 µM (inactive); in [5], 44.2 µM (inactive); in [6] it was 23.9 µM (inactive). Also, the GI50 in [7] was 24.3 µM (inactive); in assay [8], 36.9 µM (inactive); in [9] it was 54.1 µM (inactive); in [10], 36.9 µM (inactive); in [11], 39.8 µM (inactive); in [12], 31 µM. The GI50 in assay [13] was 20.8 µM (inactive); in [14], 29.9 µM (inactive); in assay [15], 42.9 µM (inactive); in assay [16], 43.1 µM (inactive); in assay [17], 24.8 µM (inactive); in assay [18], 49.1 µM (inactive). The GI50 is 36 µM (inactive) in assay [19] and 35.2 µM (inactive) in assay [20].

Turning to `C=C(C(=O)OC)N1C(=O)CC(C)C1=O` (stereo not given), the GI50 in assay [1] was 18.1 µM (inactive); in assay [2], 1.95 µM (inactive); in assay [3], 4.91 µM (inactive); in [4], 17 µM (inactive); in [5] it was 16.1 µM (inactive); in [6] it was 15.9 µM (inactive). Besides, the GI50 was 15.8 µM (inactive) in [7]; 17.9 µM (inactive) in assay [8]; 19 µM (inactive) in [9]; 1.9 µM (inactive) in assay [10]; 15.3 µM (inactive) in assay [11]; 7.45 µM in assay [12]. In addition, the GI50 is 14.7 µM (inactive) in [13]; 10.7 µM (inactive) in assay [14]; 2.83 µM (inactive) in assay [15]; 20.9 µM (inactive) in assay [16]; 8.05 µM (inactive) in [17]; 16.9 µM (inactive) in assay [18]. Besides, the GI50 is 16.9 µM (inactive) in assay [19] and 13.7 µM (inactive) in assay [20].

In the case of `CC1=C(C(=O)Nc2ccccc2)C(c2ccc(C)o2)C(C#N)=C(SCc2ccccc2)N1` (stereo not given), the GI50 in [1] was > 100 µM (inactive); in [2], 5.25 µM (inactive); in assay [3] it was 25.1 µM (inactive); in [4], > 100 µM (inactive); in assay [5], > 55.8 µM (inactive); in assay [6], 52.6 µM (inactive). Moreover, the GI50 in assay [7] is > 100 µM (inactive); in assay [8], > 100 µM (inactive); in assay [9] it was > 100 µM (inactive); in assay [10], 9.55 µM (inactive); in [11], > 100 µM (inactive); in [12], 12.7 µM. Besides, the GI50 is > 84.3 µM (inactive) in assay [13]; 34.9 µM (inactive) in assay [14]; > 100 µM (inactive) in [15]; > 90.4 µM (inactive) in assay [16]; 51.9 µM (inactive) in [17]; 4.58 µM (inactive) in [18]. Also, the GI50 in assay [19] is 34.5 µM (inactive); in assay [20], > 100 µM (inactive).

As for `N#Cc1cc2cc3c4c(c2oc1=O)CCCN4CCC3`, the GI50 in [1] is > 100 µM (inactive); in assay [2], > 100 µM (inactive); in [3], > 100 µM (inactive); in assay [4] it was > 76.4 µM (inactive); in assay [5], > 100 µM (inactive); in [6], > 100 µM (inactive). The GI50 is > 100 µM (inactive) in [7]; > 100 µM (inactive) in assay [8]; > 100 µM (inactive) in [9]; > 100 µM (inactive) in [10]; > 100 µM (inactive) in assay [11]; above 100 µM in assay [12]. The GI50 in [13] was 5.02 µM (inactive); in assay [14], > 100 µM (inactive); in assay [15] it was > 100 µM (inactive); in [16] it was > 100 µM (inactive); in assay [17], > 100 µM (inactive); in assay [18] it was > 100 µM (inactive). For the same compound, the GI50 in assay [19] and in [20] was > 100 µM (inactive) in each case.

As to `OCCNc1nc2c(N3CCCC3)nc(N3CCNCC3)nc2nc1NCc1ccccc1`, the GI50 in [1] is 15.5 µM (inactive); in [2] it was 7.8 µM (inactive); in [3] it was 16.7 µM (inactive); in assay [4], 13.3 µM (inactive); in assay [5] it was 16.9 µM (inactive); in assay [6] it was 11.9 µM (inactive). The GI50 in assay [7] is 11.3 µM (inactive); in assay [8], 18.2 µM (inactive); in assay [9] it was 16.3 µM (inactive); in assay [10] it was 12.7 µM (inactive); in assay [11], 15.9 µM (inactive); in [12], 16.4 µM. The GI50 in assay [13] is 13.6 µM (inactive); in assay [14], 8.15 µM (inactive); in assay [15], 15.5 µM (inactive); in assay [16], 17 µM (inactive); in assay [17], 4.92 µM (inactive); in assay [18], 12.4 µM (inactive). Besides, the GI50 in assay [19] is 12.6 µM (inactive); in assay [20] it was 15.7 µM (inactive).

`Clc1cccc(Cl)c1C1ON=C(c2ccccc2)N1C12CC3CC(CC(C3)C1)C2` (stereo not given): the GI50 in [1] is 13.7 µM (inactive); in assay [2], 13.3 µM (inactive); in assay [3], 6.64 µM (inactive); in assay [4] it was 0.387 µM (active); in assay [5], 4.11 µM (inactive); in [6] it was 29.1 µM (inactive). For the same compound, the GI50 was 76.9 µM (inactive) in [7]; 31 µM (inactive) in assay [8]; 66.1 µM (inactive) in assay [9]; 32.2 µM (inactive) in [10]; 32.7 µM (inactive) in [11]; 9.75 µM in [12]. Also, the GI50 is 37.4 µM (inactive) in [13]; 29.1 µM (inactive) in assay [14]; 11.2 µM (inactive) in assay [15]; 25.2 µM (inactive) in assay [16]; 9.38 µM (inactive) in [17]; 17.9 µM (inactive) in assay [18]. For the same compound, the results for the GI50 in assay [19] and in assay [20] were 4.57 µM (inactive) and 22.3 µM (inactive), respectively.

Regarding `C(=C\c1ccccc1)/COc1ccccc1C(N1CCOCC1)n1nc2ccccc2n1` (stereo not given), the GI50 in [1] is 15.4 µM (inactive); in assay [2] it was 5.15 µM (inactive); in assay [3], 2.92 µM (inactive); in assay [4], 4.8 µM (inactive); in [5] it was 2.59 µM (inactive); in assay [6] it was 7.98 µM (inactive). In addition, the GI50 in [7] is 5.85 µM (inactive); in assay [8], 5.35 µM (inactive); in assay [9], 2.59 µM (inactive); in assay [10], 22 µM (inactive); in assay [11] it was 3.5 µM (inactive); in assay [12], 1.82 µM. In addition, the GI50 in [13] was 21.2 µM (inactive); in [14], 3 µM (inactive); in assay [15], 7.98 µM (inactive); in [16], 41 µM (inactive); in [17], 2.18 µM (inactive); in [18] it was 0.365 µM (active). Also, the results for the GI50 in assay [19] and in assay [20] were 3.33 µM (inactive) and 2.58 µM (inactive), respectively.

The record behind these values is ChEMBL document CHEMBL1201862, “PubChem BioAssay data set” (2004).
